These are literature values, as cited in patent publication US20080206348A1, “Cilostazol-Containing Pharmaceutical Composition Based On Particles Of Less Than 50 Micrometers” (priority 2004, published 2008).

Regarding `O=C1CCc2cc(OCCCCc3nnnn3C3CCCCC3)ccc2N1` [Cilostazol], the Solubility in water result is “practically insoluble”.
